Values quoted from earlier work as cited in patent US7834258B2, “Dimer of chimeric recombinant binding domain-functional group fusion formed via disulfide-bond-bridge and the processes for producing the same” (priority 2003, dated 2010).

System: H2981 human lung adenocarcinoma cells

Compound	cytotoxicity (H2981 cells, 200 uM concentration)	IC50 (H2981 human lung adenocarcinoma cells, read-out: ID50 (the source's name))
Nc1nc(=O)[nH]cc1F [5-FC, 5-Fluorocytosine]	no effect	
O=c1[nH]cc(F)c(=O)[nH]1 [5-FU, 5-Fluorouracil]		20 µM
